The subject of data set [1] is intraocular pressure of normotensive Dutch-Belted male rabbits. The data set can be described thus: Intraocular pressure lowering after a single topical eye drop in normotensive rabbits. The data set is classed as in vivo, rabbit. The settings on record: for time for which the decrease in intraocular pressure is maintained: single 50 μl drop, treated eye; for sedation, ocular irritation, and changes in pupil diameter: single topical drop, observed throughout the experiment. The procedure: The free base of 4-bromo-N-imidazolidin-2-ylidene-1-H-benzimidazol-5-amine was dissolved in sterile distilled water, hydrochloric acid was added and the hydrochloric salt of the compound was formed in situ. The solution was titrated with sodium hydroxide until the pH of the solution reached 8.0. […] The experimental animals used were normotensive Dutch-Belted male rabbits. A single drop (50 μl) of the drug formulation was administered topically by pipette onto the right eye (treated eye) at approximately 07:00 AM hours. The intraocular pressure of the rabbits (treated and untreated eyes) was measured 0 hours before and at 0.5, 1, 2, 3, 4, 6 and 8 hours after topical eye drop single administration. The intraocular pressure taken before the eye drop administration (0 hours) was used as a baseline value. Prior to the tonometric measurements, 0.05% proparacaine (50 μl) was administered to each eye. Tonometric intraocular pressure measurements were obtained with a Mentor Pneumotonometer. Additionally, all studies were masked. All animals were examined for sedation, ocular irritation, and changes in pupil diameter throughout the course of the experiments.
The free base of 4-bromo-N-imidazolidin-2-ylidene-1-H-benzimidazol-5-amine was dissolved in sterile distilled water, hydrochloric acid was added and the hydrochloric salt of the compound was formed in situ. The solution was titrated with sodium hydroxide until the pH of the solution reached 8.0. The final concentration of 4-bromo-N-imidazolidin-2-ylidene-1-H-benzimidazol-5-amine is 0.2% by weight. The experimental animals used were normotensive Dutch-Belted male rabbits. A single drop (50 μl) of the drug formulation was administered topically by pipette onto the right eye (treated eye) at approximately 07:00 AM hours. The intraocular pressure of the rabbits (treated and untreated eyes) was measured 0 hours before and at 2, 4 and 6 hours after topical eye drop single administration. The intraocular pressure taken before the eye drop administration (0 hours) was used as a baseline value. Prior to the tonometric measurements, 0.05% proparacaine (50 μl) was administered to each eye. Tonometric intraocular pressure measurements were obtained with a Mentor Pneumotonmeter. Additionally, all studies were masked. All animals were examined for sedation, ocular irritation, and changes in pupil diameter throughout the course of the experiments.

A short description of data set [2]: Pharmacokinetic analysis of ocular tissues and plasma after topical dosing in rabbits. The data set is classed as in vivo, rabbit. The procedure:
Twenty-three Dutch Belted female rabbits (group 1) weighing approximately 1.75-2.34 kg were dosed with 35 μL of the formulation to the left eye. At different time points, prior to euthanasia, approximately 0.5 mL of blood was collected via central ear artery and placed in EDTA tubes. Blood samples were kept on ice during the duration of sample collection and centrifuged to harvest plasma. Animals were euthanized with 1 mL of Euthasol intravenously and the ocular tissues (aqueous humor, cornea, conjunctiva, iris-ciliary body, retina, and sclera) were collected from left and right eyes. All ocular tissues samples were placed in vials and kept on dry ice during the duration of sample collection. Ocular tissues were also collected from the control group (group 2) which received no dose. These ocular tissues served as analytical control. All ocular tissue and plasma samples were stored at or below −60° C. until bioanalysis.
(Acheampong et al. (Drug Metabolism and Disposition, Vol 23, No. 7, p 708-712).

For data set [3], the system named is intraocular pressure of hypertensive monkeys. The data set can be described thus: Intraocular pressure lowering in hypertensive monkeys. Type of data set: in vivo, monkey. The settings on record: composition of Example 1 (FIG. 4 legend: 0.5% solution), compared to placebo.
The nature of data set [4]: Iris-ciliary body accumulation and melanin binding (pharmacokinetic data). To be noted: unpublished pharmacokinetic data.
For data set [5] the following is noted: rats, after oral dose of brimonidine tartrate; Acheampong et al. 2007; cited from earlier work.
Data set [6] is described as follows: Corneal penetration assay.
A further data set has as its system corneal epithelial cells. Description: Corneal penetration assay.
For data set [7] the following is noted: cited from earlier work; for clearance from the aqueous humor / passage through cornea and sclera: following topical dosing.
For data set [8] the following is noted: stated as found earlier; cited from earlier work.

The structures appear in SMILES notation. A value given as a limit tells only on which side of the number the result lay.

The Papp is a coefficient for how fast a substance crosses the barrier. Lower therefore signals poor permeation. Take `Brc1c(N=C2NCCN2)ccc2[nH]cnc12` [4-bromo-N-imidazolidin-2-ylidene-1-H-benzimidazol-5-amine]: the “time for which the decrease in intraocular pressure is maintained” value is greater than 6 h in data set [1] (0.2% by weight solution, topical, FIG. 2); greater than 8 h in data set [1] (1% by weight solution, topical, FIG. 1); “up to 24 hours” in [3]. In addition, the “sedation, ocular irritation, and changes in pupil diameter” value in [1] (0.2% by weight solution) and in data set [1] (1% by weight solution) was “None of these effects were observed” each time. For the same compound, the “time for which sustained levels remain in the aqueous humor” value in data set [2] (35 μL topical to left eye, Dutch Belted female rabbits, FIG. 3A) is on record as “over 8 hours”. The “time for which the level is maintained in several ocular tissues” value in data set [2] (35 μL topical to left eye, FIG. 3B) is listed as “over 8 hrs”. Moreover, in [2] (after topical ocular dosing), the plasma level entry is “low and below detectable level”. Moreover, the “accumulation at the iris-ciliary body” value in [4] is “very little accumulation”. In addition, the melanin binding result in [4] was “no sign of melanin binding”. Further, the “amount found in urine” value in [5] was “trace amounts”. This compound had a Papp in data set [6] of 0.119 ± 0.01 ×10⁻⁶ cm/s. In addition, the “penetration of corneal epithelial cells (in words)” value in the data set with corneal epithelial cells is reported as “poorly”.

For `Brc1c(NC2=NCCN2)ccc2nccnc12` [Brimonidine, (5-bromo-quinoxalin-6-yl)-imidazolidin-2-ylidene-amine], the “time in which intraocular pressure returns to baseline” value in [1] (brimonidine containing composition (0.15% solution per FIG. 1 legend), topical) is less than 6 h. Further, the “time in which levels in the aqueous humor are substantially decreased” value in data set [2] (0.15% brimonidine, similar study done previously, FIG. 3A) came to 3 h. Further, in data set [7], the “clearance from the aqueous humor” value was “rapidly cleared”; the “passage through cornea and sclera” value was “readily pass through the cornea and sclera”. The “time in which the level decreases in aqueous humor” value in [7] (regardless of the dose, Acheampong et al.) is on record as “three”. Further, in data set [8], the “accumulation in the iris-ciliary body” value is “accumulate in the iris-ciliary body” and the “binding to the pigment melanin” value is “high binding”. Also, the Papp in data set [6] was found to be 8.57 ± 0.64 ×10⁻⁶ cm/s. In addition, the “penetration of corneal epithelial cells (in words)” value in the data set on corneal epithelial cells is given as “moderate penetrator”.

As for `OC[C@@H](O)[C@@H](O)[C@H](O)[C@H](O)CO` [Compound 3H-mannitol, 3H-mannitol], in the data set on corneal epithelial cells (permeability coefficient, corneal epithelial cells), the “Papp (×10^−6 cm/s)” value is given as 0.512 ± 0.069 ×10^−6 cm/s.

Turning to `Nc1cc(Cl)c(N=C2NCCN2)c(Cl)c1` [apraclonidine, 2,6-dichloro-N-imidazolidin-2-ylidene-benzene-1,4-diamine], in [7], the “clearance from the aqueous humor” value is reported as “rapidly cleared”; the “passage through cornea and sclera” value is “readily pass through the cornea and sclera”. In data set [8], the “accumulation in the iris-ciliary body” value is given as “accumulate in the iris-ciliary body” and the “binding to the pigment melanin” value is reported as “high binding”.

(Values after US9889088B2, “Alpha-2 adrenergic agonist having long duration of intraocular pressure-lowering effect” (priority 2010, dated 2018).)
